“Also recorded” adds a separate entry of the source. Read-outs that look alike come from different tables or passages of the source.
How the values were obtained:
[1] = background statement; cited from earlier work
[2] = system: platelet aggregation; settings: background statement; cited from earlier work
[3] = system: full-thickness skin layer wounds of diabetic mice; test: Effect of Beraprost on Wound Healing in full-thickness skin wound model of diabetic mice; format: in vivo, hereditary diabetic mice (C57BL/KsJ-dbm (db+/db+))
Text: Effect of Beraprost on Wound Healing in Full Sickness Wound Model of Diabetic Mice Whose Full-Thickness Skin Layer was Ablated
Hair on the backs of hereditary diabetic mice (C57BL/KsJ-dbm (db+/db+), male, 11 to 12 weeks of age, 6 mice per group) was removed one day before a test. The back portions of the mice were cleaned with ethanol under ether anesthesia, and circular full-thickness skin layer wounds (2 cm^2) were formed in the middle portions of the backs with surgical curved scissors.
Beraprost (sodium salt) as a test medicament was prepared in the form of a saline solution containing 20 % ethanol, and the saline solution was dropwise administered at a dosage of 5 μg/10 μl/cm^2 ×14 times (once per day for 14 days). As control, a solution (vehicle) containing no medicament was administered.
For evaluating the effects of the test medicament, the wound surfaces were traced on plastic sheets at intervals of 2-3 days, and measured for wound areas with a planimeter. The ratios of the wound areas to the area immediately after the skin ablation were calculated, and the numbers of days required for the visual completion of epidermization (complete healing) from the skin-removed wounds were used as indices.
Further, the degrees of the vascularization and granulation of wound surfaces were visually scored, and changes with the passage of days and side effects were observed.
Further, an exudate was collected 9 days after the skin ablation, and a mixture of the exudate with a saline solution used for washing the wound was measured for a leucocyte number through a microscope.
Further, the mice were sacrificed by ether anesthesia on 31th day, and skins of the wound portions were cut off and fixed with a 10% neutral buffer formalin solution. Then, paraffin sections, Hematoxyrin-Eosin-stained specimens and Masson trichrome-stained specimens were prepared according to conventional methods and observed through a microscope.

[4] = system: Experimental Hemorrhoids Model in Rats; test: Prevention effects on experimental hemorrhoids model in rats (croton oil); format: in vivo, Male SLC: Wistar rats; parameters: Mucosa Bleeding, Necrosis, Peeling (total length from anus transition portion) / Mucosa Red thrombus (number of thrombus) / Mucosa Epithelium Activation, number of rats / Mucosa Congestion, number of rats / Submucosa Swelling, number of rats / Submucosa Inflammatory cell infiltration, number of rats: dose or concentration left out as unconfirmed; settings: for Submucosa Inflammatory cell infiltration, number of rats / Mucosa Congestion, number of rats / Mucosa Epithelium Activation, number of rats / Submucosa Swelling, number of rats: 8 rats
Procedure: (§1) Prevention and Therapy Effects on Experimental Hemorrhoids Model in Rats
(§2) A mixture of 1 volume of distilled water, 4 volumes of pyridine, 5 volumes of ethyl ether and 10 volumes of a 3% croton oil ethyl ether solution was used. The distilled water and a small amount of ethyl ether were added to, and blended with, the pyridine, and the 3% croton oil ethyl ether solution was added. Further, the remaining ethyl ether was added, and the mixture was vigorously stirred to prepare an inflammation-inducing agent containing croton oil. This solution was prepared just before the test, and stored with ice cooling during the test.
(§3) Beraprost (sodium salt) was dissolved in distilled water to prepare a solution for oral administration and dissolved in a saline solution to prepare a solution for intrarectal administration.
(§4) In the test of effects on the prevention of hemorrhoids, the dosage for oral administration was 0.1, 0.3 or 1.0 mg/kg, and the dosage for intrarectal administration was 0.01, 0.03, 0.1, 0.3 or 1.0 mg/kg. In the tests of effects on the therapy of hemorrhoids, the dosage for oral administration was 0.1 mg/kg, and the dosage for intrarectal administration was 0.03 mg/kg. Further, the dosage of the solution for oral administration was 10 ml/kg, and the dosage of the solution for intrarectal administration was 100 μl/kg.
(§5) Seven to 8 rats were used as one group.
In the test of prevention of hemorrhoids, beraprost was orally or intrarectally administered, and 30 minutes after the administration, 100 μl of the inflammation-inducing agent containing croton oil was infiltrated into the tampon of a swab and the tampon was inserted into the anus of each rat under no anesthesia for 10 seconds to induce inflammation.
Three hours after the induction of inflammation, the rats were sacrificed by bleeding under anesthesia with ethyl ether, and a rectum-anus portion was taken from each rat such that it was exactly 20 mm long from a circular hairline on the anus epithelium, and measured for a weight.
Further, in the intrarectally administered group, the isolated rectum-anus portion was fixed with a 10% neutral buffer formalin solution, and paraffin sections, Hematoxyrin-Eosin-stained specimens and Phosphotungstic acid hematoxyin-stained specimens were prepared according to conventional methods. Then, these were observed and their photographs were taken through an optical microscope The histological data obtained by the intrarectal administration of beraprost were examined.
(§6) In addition, distilled water alone was administered to the control group for oral administration, and a saline solution (vehicle) alone was administered to the control group for intrarectal administration. Further, for comparison, a non-treated group which was neither treated with the inflammation-inducing agent containing croton oil and nor treated with a medicament and which was neither administered with distilled water nor administered with a saline solution was tested in the same manner.
(§7) For the effect of beraprost on the weight of the rectum-anus portion, the difference from the control group was determined according to Student's t test, and for the histological data, the difference from the control group was determined according to Kruskal-Wallis H test. Further, the inhibition ratio was calculated on the basis of the rectum-anus portion average weight of each group by the following equation.
(§8) Inhibition ratio (%)={1-[medicament-administered group-non-treated
(§9) group)/(control group-non-treated group)]}×100

[5] = system: Experimental Hemorrhoids Model in Rats; test: Therapy effects on experimental hemorrhoids model in rats (croton oil); format: in vivo, Male SLC: Wistar rats; settings: for Wet weight of anus-rectum: twice a day for 4 days, average ± standard error, * P < 0.05 vs control
Procedure: as §1, §2, §3, §4, §5
In the test of effects on the therapy of hemorrhoids, inflammation was induced with an inflammation-inducing agent containing croton oil in the same manner as in the test of effects on the prevention. Beraprost was administered twice a day in the morning and evening for 4 days, and the administration was started one day after the induction of inflammation. Rectum-anus portions isolated after 5 days in the same manner as in the test of effects on prevention were measured for a weight.
as §6, §7, §8, §9

[6] = Chemical stability; format: physicochemical; settings: beraprost or a salt thereof, powder
[7] = Solubility in water; format: physicochemical; settings: beraprost or a salt thereof, powder
[8] = 9 days after the administration, as compared with vehicle
[9] = 9 days after the administration, mean ± S.E., ** P < 0.01 vs vehicle
[10] = score + (Low degree), 31 days after the skin ablation
[11] = score + (Low degree), 31 days after the skin ablation, distribution * P < 0.05 (H test)
[12] = score ++ (Intermediate degree), 31 days after the skin ablation
[13] = score +++ (High degree), 31 days after the skin ablation
[14] = score - (Not affected), 31 days after the skin ablation
[15] = intrarectal 0.03 mg/kg, on average, P<0.01
[16] = intrarectal, average ± standard error, ** P < 0.01
[17] = score + (Low degree), intrarectal, distribution XX P < 0.01
[18] = score ++ (Intermediate degree), intrarectal

For `CCCCC[C@H](O)/C=C/[C@@H]1[C@H]2C/C(=C/CCCC(=O)O)O[C@H]2C[C@H]1O` [PGI2, Prostaglandin I2], the chemical stability [1] is listed as “chemically unstable” and the “inhibition activity of platelet aggregation” value [2] is listed as “high inhibition activity of platelet aggregation”.

In the case of `CC#CCC(C)[C@H](O)/C=C/[C@@H]1[C@H]2c3cccc(CCCC(=O)O)c3O[C@H]2C[C@H]1O` (relative stereo) [Beraprost, (±)-(1R*, 2R*,3aS*,8bS*)-2,3,3a,8b-tetrahydro-2-hydroxy-1-[(E)-(3S*)-3-hydroxy-4-methyl-1-octen-6-ynyl]-1H-cyclopenta[b]benzofuran-5-butyric acid], the “change ratio of wound area” value ([3]; 3 days after administration, 5 μg/10 μl/cm^2 once per day for 14 days, mean ± S.E.) was 95.7 ± 2.50%, the “amount of exudate (in words)” value [3, 8] was “clear increase” and the “number of infiltrated leucocyte (in words)” value [3, 8] was “clear increase”. For the same compound, the Amount of exudate [3, 9] was 36.6 ± 10.73 µL, the “Number of infiltrated leucocyte” value [3, 9] was 110.1 ± 31.66 × 10^4 cells/site and the “change ratio of wound area” value ([3]; 10 days after administration, mean ± S.E., ** P < 0.01 vs vehicle) was 24.4%. The “change ratio of wound area” value ([3]; 21 days after administration, mean ± S.E., * P < 0.05 vs vehicle) was 0.1%, the “histology of skin ablation portions (in words)” value ([3]; 31 days after the skin ablation) was “the whole areas were covered with regenerated skin and the exudate of the dermis disappeared; also recorded: the tissue showed transition to fibrosis, no formation of abnormal tissue or no scar of excess formation was shown, and normal wound healing was shown” and the “completion of healing first observed” value ([3]; day after administration) was “from the twenty-first day after administration”. For the same compound, the “wound surfaces (decrease, in words)” value ([3]; from the sixth day after administration, as compared with vehicle) was “remarkable decreases”, the “Days until complete healing” value ([3]; mean ± S.E., ** P < 0.01 vs vehicle) was 22 days and the systemic side effects ([3]; mouse, in vivo) was “no systemic side effects”. The “weight difference from vehicle-administered group” value ([3]; mouse, in vivo) was “no weight difference was observed”, the “Dermis, Subcutaneous tissue Exudate, number of cases” value [3, 10] was 1 cases in six mice and the “Epidermis Hypertrophy, number of cases” value [3, 10] was 1 cases in six mice. For the same compound, the “Epidermis Regeneration, number of cases” value [3, 10] was 0 cases in six mice, the “Dermis, Subcutaneous tissue Fibrosis, number of cases” value (“Dermis, Subcutaneous tissue Fibrosis” below) [3, 11] was 0 cases in six mice and the “Dermis, Subcutaneous tissue Granulation, number of cases” value (“Dermis, Subcutaneous tissue Granulation” below) [3, 11] was 2 cases in six mice. The “Dermis, Subcutaneous tissue Fibrosis” value [3, 12] was 2 cases in six mice, the “Dermis, Subcutaneous tissue Granulation” value [3, 12] was 0 cases in six mice and the “Epidermis Regeneration, number of cases” value ([3]; score ++ (Intermediate degree), 31 days after the skin ablation, distribution * P < 0.05 (H test)) was 0 cases in six mice. For the same compound, the “Dermis, Subcutaneous tissue Fibrosis” value [3, 13] was 4 cases in six mice, the “Epidermis Regeneration, number of cases” value [3, 13] was 6 cases in six mice and the “Dermis, Subcutaneous tissue Fibrosis” value [3, 14] was 0 cases in six mice. The “Dermis, Subcutaneous tissue Granulation” value [3, 14] was 4 cases in six mice, the “Epidermis Regeneration, number of cases” value [3, 14] was 0 cases in six mice and the “Dermis, Subcutaneous tissue Exudate, number of cases” value ([3]; score - (Not affected), 31 days after the skin ablation, distribution * P < 0.05 (H test)) was 5 cases in six mice. The “vascularization and granulation on the wound surfaces” value ([3]; visual, as compared with vehicle-administered group) was “clear expeditious progress in the vascularization and granulation”, the “dosage group with the largest effect” value ([4]; intrarectal) was 0.03 mg/kg and the Inhibition ratio ([4]; intrarectal 0.01 mg/kg) was 22.9%. The “Wet weight of anus-rectum” value ([4]; intrarectal 0.01 mg/kg, average ± standard error, ** P < 0.01 vs control) was 303.3 ± 6.25 mg, the Inhibition ratio ([4]; intrarectal 0.03 mg/kg) was 35.8% and the “histology of rectum (in words)” value ([4]; intrarectal 0.03 mg/kg) was “the degrees of swelling and inflammatory cell infiltration lowered; also recorded: the mucosal epithelial cell nucleus was more densely stained than in a normal portion, and cells which appeared to be in an active state were distinctly observed; also recorded: the degree of congestion was lowered”. The “Wet weight of anus-rectum” value ([4]; intrarectal 0.03 mg/kg, average ± standard error, ** P < 0.01 vs control) was 277.3 ± 12.88 mg, the “number of blood vessels having red thrombus” value [4, 15] was 6.8±2.35 and the “range of bleeding, necrosis and peeling of mucosal layer” value [4, 15] was 5.4±0.19 mm. The Inhibition ratio ([4]; intrarectal 0.1 mg/kg) was 30.1%, the “Wet weight of anus-rectum” value ([4]; intrarectal 0.1 mg/kg, average ± standard error, ** P < 0.01 vs control) was 288.7 ± 5.63 mg and the Inhibition ratio ([4]; intrarectal 0.3 mg/kg) was 24.6%. The “Wet weight of anus-rectum” value ([4]; intrarectal 0.3 mg/kg, average ± standard error, ** P < 0.01 vs control) was 299.7 ± 9.74 mg, the Inhibition ratio ([4]; intrarectal 1.0 mg/kg) was 20.5% and the “Wet weight of anus-rectum” value ([4]; intrarectal 1.0 mg/kg, average ± standard error, * P < 0.05 vs control) was 308.0 ± 14.51 mg. The “inhibition of rectum-anus weight increase (in words)” value ([4]; intrarectal 0.01 to 1.0 mg/kg, P<0.05 to 0.01) was “significant inhibition activity”, the “Mucosa Bleeding, Necrosis, Peeling (total length from anus transition portion)” value [4, 16] was 5.4 ± 0.19 mm and the “Mucosa Red thrombus (number of thrombus)” value [4, 16] was 6.8 ± 2.35. The Inhibition ratio ([4]; oral 0.1 mg/kg) was 24.5%, the “Wet weight of anus-rectum” value ([4]; oral 0.1 mg/kg, average ± standard error, ** P < 0.01 vs control) was 307.1 ± 5.87 mg and the Inhibition ratio ([4]; oral 0.3 mg/kg) was 32.3%. For the same compound, the “Wet weight of anus-rectum” value ([4]; oral 0.3 mg/kg, average ± standard error, ** P < 0.01 vs control) was 292.5 ± 11.28 mg, the Inhibition ratio ([4]; oral 1.0 mg/kg) was 39.3% and the “Wet weight of anus-rectum” value ([4]; oral 1.0 mg/kg, average ± standard error, ** P < 0.01 vs control) was 279.3 ± 8.32 mg. The “swelling inhibition activity (in words)” value ([4]; oral 0.1 to 1.0 mg/kg, depending upon the dosage) was “clear swelling inhibition activity depending upon the dosage”, the “swelling in rectum-anus portion and histopathological data (overall, in words)” value ([4]; orally and intrarectally administered) was “clearly inhibits the swelling; also recorded: remarkable effects in histopathological data” and the “Submucosa Inflammatory cell infiltration, number of rats” value ([4]; score + (Low degree), intrarectal, distribution X P < 0.05) was 5. The “Mucosa Congestion, number of rats” value [4, 17] was 8, the “Mucosa Epithelium Activation, number of rats” value (“Mucosa Epithelium Activation” for short) [4, 17] was 2 and the “Mucosa Congestion, number of rats” value [4, 18] was 0. The “Mucosa Epithelium Activation” value [4, 18] was 6, the “Submucosa Inflammatory cell infiltration, number of rats” value [4, 18] was 3 and the “Submucosa Swelling, number of rats” value ([4]; score ++ (Intermediate degree), intrarectal, distribution XX P < 0.01) was 8. The “Submucosa Swelling, number of rats” value ([4]; score +++ (High degree), intrarectal) was 0, the “Mucosa Epithelium Activation” value ([4]; score - (No change), intrarectal) was 0 and the Inhibition ratio ([5]; i.r. 0.03 mg/kg) was 31.4%. The “Wet weight of anus-rectum” value ([5]; i.r. 0.03 mg/kg) was 368.5 ± 27.35 mg, the “activity for inhibiting the swelling (in words)” value ([5]; oral 0.1 mg/kg and intrarectal 0.03 mg/kg, P<0.05) was “significant (P<0.05) activity for inhibiting the swelling” and the Inhibition ratio ([5]; p.o. 0.1 mg/kg) was 27.1%. For the same compound, the “Wet weight of anus-rectum” value ([5]; p.o. 0.1 mg/kg) was 380.7 ± 23.74 mg, the chemical stability [6] was “chemically stable” and the solubility in water [7] was “soluble in water”. The chemical stability [1] was “chemically stable”.

For `CCCCC[C@H](O)/C=C/[C@H]1[C@H](O)CC(=O)[C@@H]1CCCCCCC(=O)O` [PGE1, prostaglandin E1], the “inhibition activity of platelet aggregation” value [2] is given as “high inhibition activity of platelet aggregation”.
